{"source": "patent US20240139190A1", "about": "“NOVEL ANTIPARASITIC COMPOUNDS AND METHODS” (The Board of Regents of The University of Texas System, priority 2019, published 2024)", "key": {"purified porcine tubulin": {"biological_target": "T1, purified porcine tubulin (Sus scrofa, UniProt P02550+P02554)", "T1 construct": "purchased Cytoskeleton, Inc. T240", "assay": "Tubulin polymerization turbidity assay, mammalian tubulin", "format": "biochemical", "method": "Tubulin polymerization assays were performed in 96-well half-area microplates (Costar) in a final volume of 100 μL. Briefly, Leishmanial or porcine tubulin (>99% pure, Cat. #T240, Cytoskeleton, Inc.) in 50 μL volume was pre-treated with drugs on ice for 5 minutes before adding 50 μL ice cold buffer, to provide a final concentration of 3 mg/ml tubulin in 80 mM PIPES pH 6.9, 2 mM MgCl2, 0.5 mM EGTA, 1 mM GTP, and 1% DMSO unless specified otherwise. The absorbance at 340 nm was recorded in a Synergy H1 microplate reader (BioTek) for up to 45 min at 37° C. (porcine tubulin) or 30° C. (L. tarentolae tubulin).\nTo determine the selectivity of MMV676477, purified porcine tubulin was exposed to a serial dilution of the drug (0 to 25 μM) and absorbance was measured at 340 nm over time. […] To ensure that the absorbance seen at 340 nm reflected microtubule formation and not precipitation, a fluorescent microtubule assembly assay was employed."}, "Cytotoxicity, alamarBlue": {"assay": "Cytotoxicity, alamarBlue", "format": "cell-based", "conditions": "mouse, RAW 264.7 macrophage cells, read-out: CC50^72 h cytotoxicity (macrophage / mammalian cells)", "method": "(§1) Leishmania amazonensis axenic amastigotes (100 μL, 2×10^6 cells/mL) were added to 96-multiwell plates containing 100 μL of amastigote culture medium with an appropriate compound dilution series. 0.1% DMSO (no drug) served as a positive control (100%), and 5 μM amphotericin B served as a negative growth control (0%). Only internal wells were used to minimize edge effects from evaporation. Axenic amastigotes were incubated at 32° C. with a compound/drug for 72 h prior to measurement. Similarly, the cytotoxicity of each compound was determined against RAW 264.7 cells and HepG2 cell lines, following 72 h incubation at 37° C. (promastigotes at 26° C.).\n10% alamarBlue® (Thermo Fisher Scientific) was used to measure the growth of both parasite and mammalian cells. Conversion from a blue oxidized state to a pink reduced state was assessed visually at 6 hr. The fluorescence signal was measured with a BioTek Synergy H1 plate reader (530 nm excitation, 570 nm emission). For bioluminescence assays using L. amazonensisluc, relative luminescence units (RLU) were measured using Britelite Plus (PerkinElmer, USA). Luminescence produced by this luciferase reaction is proportional to the amount of luciferase-expressing, viable L. amazonensisluc. Following five-minute incubation at room temperature, the luminescence was measured with a BioTek Synergy H1 plate reader. […]"}, "[1]": {"test_system": "L. amazonensis axenic amastigotes", "assay": "alamarBlue viability / concentration-response assay, axenic amastigotes", "format": "cell-based, Leishmania amazonensis", "conditions": "72 h, axenic amastigotes, read-out: EC50^72 h against L. amazonensis axenic amastigotes", "method": "as §1\n10% alamarBlue® (Thermo Fisher Scientific) was used to measure the growth of both parasite and mammalian cells. Conversion from a blue oxidized state to a pink reduced state was assessed visually at 6 hr. The fluorescence signal was measured with a BioTek Synergy H1 plate reader (530 nm excitation, 570 nm emission). For bioluminescence assays using L. amazonensisluc, relative luminescence units (RLU) were measured using Britelite Plus (PerkinElmer, USA). Luminescence produced by this luciferase reaction is proportional to the amount of luciferase-expressing, viable L. amazonensisluc. Following five-minute incubation at room temperature, the luminescence was measured with a BioTek Synergy H1 plate reader.\nAll experiments were conducted as three technical triplicates on the same plate, with at least three independent biological repeats of each plate performed. For all assays, percent growth was expressed as a proportion of the untreated (positive) control (i.e. 100%) and plotted against drug/compound concentration. The concentration was then log10 transformed and EC50 values were determined using nonlinear regression (sigmoidal dose-response/variable slope equation) in GraphPad Prism v5.0 (GraphPad Software, Inc., San Diego, CA).\nTo identify antileishmanial compounds, a microplate-based alamarBlue® assay was used to quickly triage the 400 drug-like compounds available in the MMV Pathogen Box collection. […] A three-step process was used to screen the Pathogen Box: 1) identify hits against axenic amastigotes, 2) confirm the inhibitory concentrations of these hits against axenic amastigotes, 3) evaluate hits for potency against intracellular parasites using fluorescence and bioluminescence-based intracellular assays. The MMV Pathogen Box resource was tested at two concentrations (5 μM and 1 μM, 72 h endpoint) on axenic amastigotes.\nHits were defined as compounds that, at a concentration of 1 μM, decreased the relative fluorescence intensity signal to ≤70% of that produced by parasites incubated in vehicle (0.06% DMSO) only (FIG. 9)."}, "[2]": {"biological_target": "purified L. tarentolae tubulin (Leishmania tarentolae, UniProt A0A640KCM0+A0A640KQN0)", "assay": "Chemical cross-linking competition with SW223022 probe", "format": "binding", "conditions": "100-fold excess of competitor"}, "[3]": {"test_system": "intracellular L. amazonensis amastigotes", "assay": "Intracellular washout assay (LD50)", "format": "cell-based, Leishmania amazonensis", "method": "Intracellular LD50s were measured. Briefly, RAW 264.7 cells were seeded to 96-multiwell plates at a density of 2×10^5 cells/mL (200 μL) and starved overnight at 37° C. The cells were infected with metacyclic promastigotes at a Multiplicity of Infection (MOI) of 15 and incubated for another 24 h at 37° C. The plates containing infected RAW 264.7 cells/BM primary M #s were washed five times with serum-free DMEM. Serially diluted compounds were added, and plates were incubated at 37° C. for 72 hrs. Wells were washed five times with DMEM, and the RAW 264.7 cells were lysed with 100 μL of 2 mg/mL saponin in DMEM for 5 min at room temperature, and further lysis was stopped with 100% FBS. After centrifugation, 200 μL acidic promastigotes media was replaced, plates were incubated at 26° C. for 96 h. Fluorescence intensity (alamarBlue®) was measured as described above.\nAll routine in vitro quantification of antileishmanial drug potency is quantification of “cytostatic” potency. […] Therefore, the cytocidal action of MMV676477 was quantified by obtaining an LD50 at 72 h (a Lethal Dose that kills 50% of the bulk population of the parasites relative to untreated control) and compared it to the known cytocidal drug amphotericin. An intracellular washout assay was employed. […] The ratio of LD50:EC50 was calculated for MMV676477 and amphotericin. Lower ratios indicate that the LD50 is similar to the EC50 value, meaning that the estimated EC50 values represent killing of the parasites rather than simple growth inhibition."}}, "note": "pEC50: −log10 of the molar value. Read-outs that look alike come from different tables or passages of the source.", "data": [{"smiles": "CCc1c(C)nc(-n2nc(C)cc2NC(=O)c2ccccc2SC)[nH]c1=O", "note": "[MMV676477, N-(1-(5-Ethyl-4-methyl-6-oxo-1,6-dihydropyrimidin-2-yl)-3-methyl-1H-pyrazol-5-yl)-2-(methylthio)benzamide]", "values": [{"measurement": "pEC50", "setting": "purified porcine tubulin; 3 mg/ml tubulin, 1% DMSO, A340", "result": 4.96}, {"measurement": "tubulin polymerization activity with detergent", "setting": "purified porcine tubulin; 0.01% Triton-X treatment", "result": "not affected"}, {"measurement": "Maximum absorbance (A340, 10% DMSO)", "setting": "purified porcine tubulin; mammalian tubulin", "result": 0.4}, {"measurement": "CC50 at 72 h", "setting": "Cytotoxicity, alamarBlue", "result": 2200, "unit": "nM"}, {"measurement": "pEC50", "setting": "[1]", "result": 7.11}, {"measurement": "pEC50", "setting": "[1]; Leishmania amazonensis", "result": 7.10}, {"measurement": "competition with SW223022 probe (fluorescent tubulin band)", "setting": "[2]", "result": "almost completely absent"}, {"measurement": "LD50/EC50 ratio", "setting": "[3]; intracellular amastigotes", "result": 1.2}, {"measurement": "LD50 72 h", "setting": "[3]; intracellular washout, 72 h", "result": 620, "unit": "nM"}]}]}
